This is an account of results in ChEMBL document CHEMBL2016525, “Discovery of a novel acetylcholinesterase inhibitor by structure-based virtual screening techniques” (Bioorg Med Chem Lett, 2012).

Structures are written as SMILES.

For one data set, the target named is Acetylcholinesterase (Electrophorus electricus, UniProt O42275). Nature of the data set: (§1) Inhibition of electric eel AChE by Ellman's method. In general terms: DTNB colorimetry detects thiols as they appear.
The nature of data set [1]: Lipophilicity, log D of the compound. The note with it: octanol/water. Format: physicochemical.
For data set [2], the target named is Acetylcholinesterase (Electrophorus electricus) (UniProt O42275). Described as §1.
Acetylcholinesterase (Electrophorus electricus), sequence (O42275 24-633 limits assumed): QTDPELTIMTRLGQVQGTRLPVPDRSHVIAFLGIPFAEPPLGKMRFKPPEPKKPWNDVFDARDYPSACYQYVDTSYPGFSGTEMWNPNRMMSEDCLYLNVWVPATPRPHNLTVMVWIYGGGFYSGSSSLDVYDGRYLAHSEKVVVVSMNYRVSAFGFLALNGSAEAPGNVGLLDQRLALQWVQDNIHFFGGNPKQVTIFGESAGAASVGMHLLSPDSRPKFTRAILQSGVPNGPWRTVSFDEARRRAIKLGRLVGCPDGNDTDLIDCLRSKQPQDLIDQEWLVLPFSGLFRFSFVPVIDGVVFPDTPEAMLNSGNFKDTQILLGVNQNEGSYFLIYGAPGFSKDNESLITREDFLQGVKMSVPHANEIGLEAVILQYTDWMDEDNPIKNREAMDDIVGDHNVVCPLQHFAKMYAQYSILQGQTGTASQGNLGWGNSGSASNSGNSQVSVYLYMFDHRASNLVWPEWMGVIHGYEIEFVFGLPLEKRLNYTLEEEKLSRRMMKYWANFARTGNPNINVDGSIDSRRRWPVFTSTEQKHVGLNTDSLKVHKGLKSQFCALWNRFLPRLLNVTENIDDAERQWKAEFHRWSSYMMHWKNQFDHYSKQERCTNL

Acetylcholinesterase, sequence (O42275 whole entry): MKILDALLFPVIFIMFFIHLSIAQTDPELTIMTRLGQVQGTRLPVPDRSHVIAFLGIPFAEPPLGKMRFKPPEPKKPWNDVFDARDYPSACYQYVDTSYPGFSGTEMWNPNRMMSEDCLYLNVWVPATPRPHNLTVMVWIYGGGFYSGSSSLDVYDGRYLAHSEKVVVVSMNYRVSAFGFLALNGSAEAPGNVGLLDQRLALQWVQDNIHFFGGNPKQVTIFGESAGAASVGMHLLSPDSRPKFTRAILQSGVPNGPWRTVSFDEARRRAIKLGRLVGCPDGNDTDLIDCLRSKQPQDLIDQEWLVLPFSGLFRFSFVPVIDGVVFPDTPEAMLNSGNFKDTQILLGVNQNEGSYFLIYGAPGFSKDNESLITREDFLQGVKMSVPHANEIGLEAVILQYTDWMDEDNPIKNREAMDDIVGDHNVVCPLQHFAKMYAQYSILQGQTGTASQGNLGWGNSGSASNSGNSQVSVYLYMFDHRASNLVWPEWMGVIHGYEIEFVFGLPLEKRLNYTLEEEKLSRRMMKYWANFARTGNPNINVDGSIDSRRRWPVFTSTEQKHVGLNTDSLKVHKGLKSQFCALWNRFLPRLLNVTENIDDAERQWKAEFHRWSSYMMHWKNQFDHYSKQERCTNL

The IC50 is the point on the concentration scale where inhibition reaches its midpoint. Low values mean higher potency, high ones lower potency. As usually defined, the logD is the decadic logarithm of the distribution of all forms, ionised or not, between an organic phase and buffer at a given pH. `CC(=O)Nc1ccc(-c2nnc(SCC(=O)Nc3ccc(Br)cc3Cl)n2C)cc1`: the IC50 at Acetylcholinesterase turned out to be 10.5 µM. This compound returned a logD in data set [1] of 3.61.

For the compound `COc1ccc(NC(=O)c2ccc(NS(=O)(=O)c3cc4c5c(cccc5c3)C(=O)N4)cc2)cc1`, the IC50 against Acetylcholinesterase was > 100 µM. Besides, in data set [1], the pH-dependent lipophilicity (logD) came out at 2.95.

On Acetylcholinesterase, `O=C1Nc2cc(S(=O)(=O)Nc3ccc(Oc4ccccc4)cc3)cc3cccc1c23` came in with a concentration for half-maximal inhibition (IC50) of 9.9 µM. Also, the logD in data set [1] came out at 3.74.

Turning to `Cc1cccc(OCC(=O)Nc2cccc(Oc3ccc4c(c3)C(=O)NC4=O)c2)c1C`, half-maximal inhibition on Acetylcholinesterase (IC50) was put at 14.9 µM. The logD in data set [1] was 3.81.

The compound `C=CCn1c(SCCCC(=O)Nc2ccc(S(N)(=O)=O)cc2)nc2sc3c(c2c1=O)CCCC3` showed an IC50 against Acetylcholinesterase of 2.5 µM. Further, the inhibition result in data set [2] was “Dose-dependent effect”. The same compound yielded a logD in data set [1] of 3.93.

`CCOc1cc(/C=N/NC(=O)c2cc(-c3cccc(OC)c3)n[nH]2)ccc1O`: half-maximal inhibition against Acetylcholinesterase (IC50) was put at 7.8 µM. In data set [1], this compound displayed a logD of 3.44.

Compound `CC1CCc2c(sc3nc(SCC(=O)Nc4ccc(S(N)(=O)=O)cc4)n(N)c(=O)c23)C1` (configuration not stated) returned a half-maximal inhibitory concentration (IC50) against Acetylcholinesterase of 5.9 µM. In data set [2], the inhibition entry was “Dose-dependent effect”. In data set [1], this compound displayed a logD of 2.3.

With `CCOc1cc(C(=O)NNC(=S)Nc2ccc(S(N)(=O)=O)cc2)cc(OCC)c1OCC`, on Acetylcholinesterase, half-maximal inhibition (IC50) required 4.8 µM. In addition, in data set [2], the inhibition result was “Dose-dependent effect”. In addition, the logD in data set [1] amounted to 2.65.

On Acetylcholinesterase, `O=C1Nc2ccccc2/C1=N/NC(=O)c1ccc(Nc2nc(-c3ccccc3)cs2)cc1` gave an IC50 of 9.5 µM. The same compound yielded a logD in data set [1] of 4.26.

In turn, `COc1cc(/C=C/C(=O)NCCCCNc2c3c(nc4ccccc24)CCCC3)ccc1O` returned a logD in data set [1] of 5.33.

`C=CCn1c2ccccc2c2nnc(SCC(=O)Nc3ccc(S(N)(=O)=O)cc3)nc21` showed an IC50 against Acetylcholinesterase of 6.5 µM. Besides, the inhibition result in data set [2] was “Dose-dependent effect”. This compound also gave a logD in data set [1] of 1.34.

In data set [1], `COc1cc(/C=C/C(=O)NCCCCCNc2c3c(nc4ccccc24)CCCC3)ccc1O` gave a logD of 5.78.

In the case of `COc1cc(/C=N/NC(=O)CSc2nnc(-c3ccc(OC)c(OC)c3)n2-c2ccccc2)ccc1O`, the IC50 at Acetylcholinesterase is > 100 µM. Besides, the logD in data set [1] is 4.4.

In turn, `C=C(C)COc1cc(C)cc2oc(=O)c(CC(=O)NCc3ccc(S(N)(=O)=O)cc3)c(C)c12` registered an IC50 on Acetylcholinesterase of 12.3 µM. The logD in data set [1] worked out at 3.4.

Take `COc1cc(/C=N/NC(=O)c2ccc(COc3cccc(Cl)c3)o2)cc(Br)c1O`: on Acetylcholinesterase, the IC50 came out at 9.8 µM. Further, in data set [1], the logD is 4.86.

For the compound `COc1cc(/C=N/NC(=O)c2ccc(COc3c(F)c(F)c(F)c(F)c3F)cc2)ccc1O`, the midpoint of inhibition at Acetylcholinesterase, the IC50, lay at 6.7 µM. The logD in data set [1] came to 5.02.

Regarding `CCNS(=O)(=O)c1ccc(NC(=O)c2ccc(Cn3nc(C)cc3C)o2)cc1`, the IC50 against Acetylcholinesterase worked out at 1.5 µM. The inhibition result in data set [2] is “Dose-dependent effect”. The compound also yielded a logD in data set [1] of 2.01.
